In US12370175B2, “Glucocorticoid receptor modulators to treat pancreatic cancer” (Corcept Therapeutics, Inc., priority 2016, dated 2025):
Entries after “also recorded” stand apart in the source; their conditions may differ.

Columns and labels:
[1] = tested on: Human Pancreatic carcinoma cells (MIA-PaCa-2); experiment: MIA-PaCa-2 xenograft tumor growth in mice, SGRM combined with paclitaxel; format: in vivo, mice (Balbc/c nude); details: SGRM 30 mg/kg orally on day prior to and same day as paclitaxel 7.5 mg/kg intravenously Q4D; MIA-PaCa-2 subcutaneous tumors
Experimental: Human Pancreatic carcinoma cells (MIA-PaCa-2) were purchased from the American Type Cell Collection (ATCC). The cells were grown in Dulbecco's Modified Eagle's Medium (DMEM) containing 10% (v/v) heat inactivated fetal calf serum and 2.5% horse serum at 37° C. Suspensions of the cells were injected subcutaneously into the left flank of 5-6 week old immunocompromised female mice (Balbc/c nude), 3 million cells per mouse. Tumors were allowed to grow until they reach a volume of 100-200 cubic millimeters (mm^3). Mice were then grouped into four groups, ten (10) per group, and treated with compounds or vehicle as follows. Vehicle or paclitaxel was administered intravenously and SGRMs, i.e., CORT25134 and CORT125281, were administered orally. SGRMs were administered in vehicle ((10% dimethyl sulfoxide (DMSO), 0.1% Tween 80 (polyethylene glycol sorbitan monooleate (polysorbate 80)) and 89.9% hydroxypropyl methylcellulose (HPMC) (0.5%)). Group 1 was dosed with the compound vehicle (10% DMSO, 0.1% Tween 80 and 89.9% HPMC (0.5%)) daily. Group 2 was dosed with paclitaxel at 7.5 mg/kg, every four days (“Q4D”). Group 3 was dosed with both paclitaxel at 7.5 mg/kg Q4D and CORT125134 at 30 mg/kg on the day prior to and the same day as the day paclitaxel was administered. Group 4 was dosed with both paclitaxel at 7.5 mg/kg Q4D and CORT125281 at 30 mg/kg on the day prior to and the same day as the day paclitaxel was administered.
The longest (L) and shortest (S) diameters of the tumors were measured three times a week with electronic calipers and tumor volume was calculated using the formula […], where a and b are the long and short diameters of the tumor, respectively. The tumor growth data are shown in The FIGURE, in which the mean tumor volume as compared to the mean pre-dosing tumor volume for each group of mice is plotted against the number of days of tumor growth since initiation of the treatment.

[2] = tested on: exocrine pancreatic tumor; experiment: Treating a patient having pancreatic cancer with SGRM and nab-paclitaxel (Example 3, hypothetical); format: in vivo, human; details: 200 mg once a day for eight weeks with nab-paclitaxel 80 mg per square meter on days 1, 8, 15 of 28-day cycle; end of the treatment period
Experimental: A typical pancreatic patient may complain of upper abdomen pain that typically radiates to the back. Such a patient may experience loss of appetite, nausea and vomiting episodes, and may suffer significant weight loss. A CT scan may show the presence of a tumor in the pancreas. The presence of an exocrine pancreatic tumor may be confirmed by histological analysis. Blood ACTH level may be within the normal range for ACTH. Such a patient may be treated with CORT125134 at a dose of 200 mg once a day for eight weeks in combination with an intravenous infusion of nab-paclitaxel at a dose of 80 mg per square meter of body-surface area as an intravenous infusion over 30 minutes on days 1, 8, and 15 of every 28-day cycle. Tumor load may be monitored using enhanced MRI before, during and after such treatment. Imaging results may indicate that the size of the tumor gradually decreases; such reduction may be more than 50% at the end of the treatment period.

[3] = tested on: metastatic adenocarcinoma of the pancreas; experiment: Clinical study of CORT125134 with nab-paclitaxel in a patient with advanced pancreatic cancer (Example 4); format: in vivo, human
Experimental: A patient with a diagnosis of metastatic adenocarcinoma of the pancreas participated in a clinical study evaluating the efficacy of daily administration of 100 mg of the GR antagonist CORT125134 in combination with nab-paclitaxel infusions weekly for three out of four weeks per cycle. A tumor tissue sample obtained during or prior to the patient's previous treatments was found by immunohistochemistry to have high GR expression, with 90 percent of the cells staining for GR and with a large percentage staining with high intensity. Prior to receiving this combined GR antagonist and nab-paclitaxel treatment, the patient had previously received treatment with multiple lines of chemotherapy: gemcitabine monotherapy; eight months of combination chemotherapy treatment with 5-fluorouracil, leucovorin, irinotecan and oxaliplatin (FOLFIRINOX treatment); five months of treatment with gemcitabine combined with nab-paclitaxel; and four months of combination chemotherapy treatment with 5-fluorouracil, leucovorin, and irinotecan hydrochloride (FOLFIRI treatment). These prior treatments were unsuccessful: the patient's cancer progressed despite these prior chemotherapy treatments.
This patient has so far received 8 months (8 cycles) of the combined treatment of daily 100 mg CORT125134 in combination with nab-paclitaxel infusions weekly for three out of four weeks per cycle. […] When scanned again one month later, the tumor volume was still reduced by approximately 40% compared to baseline volume, thus confirming the PR status. […] The patient remains on the treatment, and continues to tolerate the treatment well.

Q: For `Cn1cc(S(=O)(=O)N2CCC3=Cc4c(cnn4-c4ccc(F)cc4)C[C@]3(C(=O)c3cc(C(F)(F)F)ccn3)C2)cn1` [CORT125134, (R)-(1-(4-fluorophenyl)-6-((1-methyl-1H-pyrazol-4-yl)sulfonyl)-4,4a,5,6,7,8-hexahydro-1H-pyrazolo[3,4-g]isoquinolin-4a-yl)(4-(trifluoromethyl)pyridin-2-yl)methanone], which “tumor growth (mean tumor volume compared to mean pre-dosing tumor volume), combination versus paclitaxel group” value [1] is on record?
A: superior to the paclitaxel group in reducing tumor growth

Q: What about the “tumor growth reduction, comparison among treatment groups” value [1] of the same compound?
A: most significant tumor growth reduction

Q: And the “reduction of the size of the tumor (enhanced MRI)” value [2]?
A: more than 50%

Q: What about the clinical response ([3]; daily 100 mg CORT125134 with nab-paclitaxel infusions weekly three out of four weeks per cycle, 8 months (8 cycles), one patient) of the same compound?
A: partial response (PR); also recorded: sustained partial response

Q: And the “tolerability of the treatment” value ([3]; daily 100 mg CORT125134 with nab-paclitaxel infusions, 8 months, one patient)?
A: tolerated the treatment reasonably well; also recorded: tolerated the treatment with CORT125134 and nab-paclitaxel well

Q: What about the “tumor volume reduction compared to baseline volume (CT scans)” value ([3]; scanned again one month after the third month, daily 100 mg CORT125134 with nab-paclitaxel) of the same compound?
A: approximately 40%

Q: And the “tumor volume reduction compared to baseline (scan)” value ([3]; seventh month of treatment, daily 100 mg CORT125134 with nab-paclitaxel, one patient)?
A: 40%

Q: And the “tumor volume reduction compared to start of study (CT scans)” value ([3]; third month/cycle of treatment, daily 100 mg CORT125134 with nab-paclitaxel, one patient)?
A: approximately 40%

Q: How did the “tumor growth (mean tumor volume compared to mean pre-dosing tumor volume), combination versus paclitaxel group” value [1] turn out when `Cn1ncc(S(=O)(=O)N2CC[C@H]3Cc4c(cnn4-c4ccc(F)cc4)C[C@]3(C(=O)c3cc(C(F)(F)F)ccn3)C2)n1` [CORT125281, ((4aR,8aS)-1-(4-fluorophenyl)-6-((2-methyl-2H-1,2,3-triazol-4-yl)sulfonyl)-4,4a,5,6,7,8,8a,9-octahydro-1H-pyrazolo[3,4-g]isoquinolin-4a-yl)(4-(trifluoromethyl)pyridin-2-yl)methanone] was run?
A: superior to the paclitaxel group in reducing tumor growth
